Laboratory results published in US20110123470A1, “NATURAL BIOACTIVE COMPOUNDS” (Aquapharm Bio-Discovery Ltd., priority 2007, published 2011).
pIC50: −log10 of the molar value. ≈ marks a conversion by molar mass, not a printed value.

Key:
Candida albicans = experiment: Antifungal activity assay (MIC) in PDA media; type: cell-based; details: for C. albicans (MIC): PDA media containing 0.2% yeast extract
Experimental: (§1) Candida albicans and Malassezia furfur were used to carry out the antifungal assay in Potato Dextrose Agar (PDA) media containing 0.2% yeast extract. The Minimum Inhibitory Concentration (MIC) was recorded (Table 1).

Malassezia furfur = experiment: Antifungal activity assay (MIC) in PDA media; type: cell-based; details: for M. furfur (MIC): PDA media containing 0.2% yeast extract
Experimental: as §1

MRSA = experiment: Antimicrobial activity against MRSA; type: cell-based
[1] = test system: anti-oxidant response element (ARE); experiment: Antioxidant elicitation assay (ARE-driven luciferase activity) in reporter cell line ARE32; type: cell-based; details: ARE32 cells
Experimental: The cell line ARE32 was incubated with eight concentrations of P1639C and the positive control tert-butylhydroquinone (tBHQ) for 24 hours, and the luciferase activity measured (Luciferase Assay System, Promega). P1639C enhanced induction of ARE-driven luciferase activity up to 18-fold (at a concentration of 30 μM) (FIG. 2b) compared with normal cells without any oxidative induction.
The ARE comparison was also carried out between p1639C (5-hexyl-2(5H)-furanone), 4-decanolide (5-hexyl-2(3H)-furanone) and 2(5H)-furanone.

mammalian cell culture = experiment: Cell viability (resazurin) coupled with the NFκB assay; type: cell-based; details: concentrations of the NF-κB assay
Experimental: (§2) Anti-inflammatory assay was carried out based on the NFκB expression and IKKβ activity. NFκB expression was tested using PRINCESS® NINA NFκB Assay Kit. P1639C and other related lactone compounds were supplemented to a mammalian cell culture in which NFκB has been stimulated by TNF-α. The assay was also coupled with an in vitro cell toxicity assay. IKKβ was tested using 5-20 mU of IKKβ, which was diluted in 50 mM Tris (pH 7.5), 0.1 mM EGTA, 1 mg/ml BSA, 0.1%, b-Mercaptoethanol. The kinase is assayed against substrate peptide (LDDRHDSGLDSMKDEEY) in a final volume of 25.5 μl containing 50 mM Tris (pH 7.5), 0.1 mM EGTA, 0.1%, b-Mercaptoethanol, 300 μM substrate peptide, 10 mM magnesium acetate and 0.005 mM [33P-g-ATP] (500-1000 cpm/pmole) and incubated for 30 mins at room temperature. Assays are stopped by addition of 50 of 0.5M (3%) orthophosphoric acid. The phosphorylated peptide was harvested on a p81 filterplate and the phosphorylation level was measured by scintillation counts.
Cell viability was carried out by incubation of the cells with resazurin and measuring the absorption at 600 nm against a reference measurement of above 650 nm.

NF-κB = experiment: Anti-inflammatory assay: NFκB activity in TNF-α stimulated mammalian cell culture (PRINCESS NINA NFκB Assay Kit); type: cell-based
Experimental: as §2
P1639C was supplemented to the mammalian cell culture with a series of concentration at 0.001 mM, 0.002 mM, 0.005 mM, 0.01 mM, 0.02 mM, 0.05 mM, 0.1 mM, 0.2 mM and 0.5 mM. SEAP provided in the Princess NINA kit was used as a stimulatory control to show normal inflammatory response in cells, whereas BAY11-7082 at a final concentration of 5 μM was used as the positive control of inhibited NF-κB activity. The cell with TNF-α was used as the negative control. The cell response to the supplemented compounds was measured by the 450 nm emission (360 nm excitation) after addition of inactivation buffer and MUP solution.

IKKβ = target: T1, IKKβ (Homo sapiens, UniProt O14920); experiment: IKKβ kinase assay (33P phosphorylation of substrate peptide); type: biochemical; details: 50 μM
T1 sequence (O14920 1-756): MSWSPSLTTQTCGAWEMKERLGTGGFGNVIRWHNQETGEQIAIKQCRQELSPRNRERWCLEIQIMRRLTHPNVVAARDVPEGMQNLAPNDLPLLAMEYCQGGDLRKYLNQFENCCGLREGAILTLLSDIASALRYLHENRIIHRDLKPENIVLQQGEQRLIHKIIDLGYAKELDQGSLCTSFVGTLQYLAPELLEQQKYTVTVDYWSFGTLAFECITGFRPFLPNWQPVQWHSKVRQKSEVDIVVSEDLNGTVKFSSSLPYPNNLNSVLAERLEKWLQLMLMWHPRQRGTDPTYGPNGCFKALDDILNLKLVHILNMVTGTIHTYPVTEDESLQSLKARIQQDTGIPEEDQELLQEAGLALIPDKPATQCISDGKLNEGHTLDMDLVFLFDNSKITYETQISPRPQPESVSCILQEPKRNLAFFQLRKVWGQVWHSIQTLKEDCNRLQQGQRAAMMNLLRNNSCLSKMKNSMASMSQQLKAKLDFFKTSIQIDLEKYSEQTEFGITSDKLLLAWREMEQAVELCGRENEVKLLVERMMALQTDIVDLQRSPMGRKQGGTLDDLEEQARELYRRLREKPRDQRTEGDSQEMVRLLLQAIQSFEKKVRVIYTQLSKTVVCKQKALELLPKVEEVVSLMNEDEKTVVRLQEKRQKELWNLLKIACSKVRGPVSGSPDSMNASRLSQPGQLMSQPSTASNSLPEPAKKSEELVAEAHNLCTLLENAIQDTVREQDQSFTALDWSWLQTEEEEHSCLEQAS
Experimental: as §2

Experimental for human hepatocytes: The toxicology assay was carried out using an in vitro human hepatocytes model where human hepatocytes were exposed to varying concentrations of compound [MUT] as well as tamoxifen and chlorpromazine for three hours.

Structure (SMILES)	C. albicans (MIC) (Candida albicans) [µg]	M. furfur (MIC) (Malassezia furfur) [µg]	depletion of intracellular ATP (level of toxicity) (human hepatocytes)	MRSA (antimicrobial activity) (MRSA) [µg]	other results
CN(C)CCCN1c2ccccc2Sc2ccc(Cl)cc21 [chlorpromazine]	–	–	moderate decreasing rate of intracellular ATP level	–	–
CC1=CCOC1=O [3-methy1-2(5H)-furanone]	5 to 7	5 to 6	–	>20	–
CC/C(=C(\c1ccccc1)c1ccc(OCCN(C)C)cc1)c1ccccc1 [tamoxifen]	–	–	moderate decreasing rate of intracellular ATP level	–	–
CC1=CCC(=O)O1 [5-methyl-2(3H)-furanone]	5 to 7	5 to 7	–	>20	–

Continued, in another order:

C. albicans (MIC) (Candida albicans) [µg]	M. furfur (MIC) (Malassezia furfur) [µg]	Structure (SMILES)	depletion of intracellular ATP (level of toxicity) (human hepatocytes)	MRSA (antimicrobial activity) (MRSA) [µg]	other results
5 to 7	5 to 7	CC1C=CC(=O)O1 (stereo not drawn) [5-methyl-2(5H)-furanone]	–	>20	–
>10	>10	O=C1C=CCO1 [2(5H)-furanone]	–	>20	anti-oxidant elicitation effect (ARE-driven gene expression) ([1]; comparison of FIG. 8): did not show significant anti-oxidant elicitation effects
1 to 1.5	<1	CCCCCCC1C=CC(=O)O1 (stereo not drawn) [P1639C, 5-hexylfuran-2(5H)-one]	significant ATP depletion was not observed	>10	MIC (Candida albicans; Candida albicans, read-out: MIC against C. albicans): 1 to 1.5 µg/mL (≈ 5.94 to 8.92 µM); MIC (Malassezia furfur; Malassezia furfur, read-out: MIC against M. furfur): 0.8 µg/mL (≈ 4.76 µM); induction of ARE-driven luciferase activity ([1]; 30 μM, 24 hours, compared with normal cells without oxidative induction): up to 18 fold; cytotoxicity against the testing cells (mammalian cell culture): no significant cytotoxicity; NF-κB inhibition activity, comparison with known butenolides (NF-κB; 0.05 mM): the only active compound; inhibition of NF-κB mediated inflammatory response (NF-κB; 0.5 mM): almost fully inhibited; pIC50 (NF-κB; TNF-α elicited response = 100%, read-out: concentration inhibiting 50% of the NF-κB mediated inflammatory response): 4.70; IKKβ phosphorylation activity decreased to (IKKβ): 64%±2%
